Consider one compound from patent US8629169B2, “4-substituted-3-phenylsulfanylmethyl-bicyclo[3.1.0]hexane compounds as mGluR 2/3 antagonists” (Eli Lilly and Company, priority 2010, dated 2014).

The target of assay [1] is T1, human mGlu5 receptor (Homo sapiens, UniProt P41594).
T1 construct: expressed in transfected cells; host or cells: AV12 cells co-expressing rat EAAT1
Kind of assay: FLIPR calcium antagonist assay for mGlu receptor selectivity, mGlu5. The note with it: inhibition of EC90 glutamate response, read-out: mGlu5 % inhib. @12.5 μM. In kind it is cell-based. The text has this:
(§1) The relative antagonist potencies of the compounds of the invention for the other human mGlu receptors can be assessed with either a cAMP assay or fluorometric calcium response assay (see for example Fell et al., JPET (in press)). Briefly, individual AV12 cell lines containing the rat EAAT1 glutamate transporter and stably expressing the human mGlu1, 2, 3, 4, 5, 6, & 8 receptors are used for these studies. The mGlu1 and 5 receptors are Gq-coupled, so they naturally signal through phospholipase C, producing a calcium flux response which can be used to measure receptor activation using a Fluorometric Imaging Plate Reader (FLIPR, Molecular Devices). […]
(§2) Intracellular calcium levels are monitored using FLIPR before and after the addition of test compounds and Fluo-3 AM (Invitrogen) or Calcium 4 (Molecular Devices) dye, depending on the cell line. […] The results are analyzed using GraphPad Prism v4.03 to calculate the concentrations of glutamate needed to induce the EC90 (antagonist assay) and EC10 (potentiator assay) responses.
(§3) Compounds are tested at each mGlu receptor in a two-addition FLIPR assay using a 10-point concentration response profile starting at a final concentration of 25 μM for the agonist assay and 12.5 μM for the potentiator and antagonist assays. […] Agonist effects are quantified as percent stimulation induced by compound alone relative to the maximal glutamate response. […]

Assay [2] relates to male NIH-Swiss mice. Briefly: Forced-swim test in mice (mFST). The format is in vivo, mouse. The note with it: i.p.
Assay [3] addresses T2, human mGlu1 receptor (Homo sapiens, UniProt Q13255).
T2 construct: expressed in transfected cells; host or cells: AV12 cells co-expressing rat EAAT1
Kind of assay: FLIPR calcium antagonist assay for mGlu receptor selectivity, mGlu1. The format is cell-based. As to conditions: inhibition of EC90 glutamate response, read-out: mGlu1 % inhib. @12.5 μM.
Text: as §1, §2, §3

The target of assay [4] is T3, human mGlu6 receptor (Homo sapiens, UniProt O15303).
T3 construct: expressed in transfected cells; host or cells: AV12 cells co-expressing rat EAAT1
Briefly: mGlu6 cAMP antagonist assay (reference agonist L-AP4). The format is cell-based. The note with it: cAMP format.
Text: as §1, with “Devices). The cell lines expressing the mGlu2, 3, 4, and 8 receptor are designed to express the Gα15 subunit so that these Gi-coupled receptors will generate a calcium flux response similar to the mGlu1 and 5 receptor expressing cell lines. The mGlu6 receptor is tested in a cAMP format using methods analogous to those developed for mGlu2 and mGlu3 above.” for “Devices).”
Antagonist activity in mGlu6 cells is measured using cAMP in a method analogous to that described above for mGlu2 and mGlu3 activity, except that the reference agonist was L-AP4 (Tocris). […] Relative IC50 and EC50 values are calculated from the top-bottom range of the concentration response curve using a four-parameter logistic curve fitting program (ActivityBase v5.3.1.22).

The subject of assay [5] is mGlu2+/+ and mGlu2−/− mice. Briefly: mFST in mGlu2 knock-out mice and +/+ littermates. The note with it: 10 mg/kg, i.p., 30 min prior.
Method: Briefly, male NIH-Swiss mice (Harlan Sprague-Dawley, Indianapolis, Ind.) weighing between 25-30 g are used. Group housed animals are removed from the vivarium to the testing area in their own cages and allowed to adapt to the new environment for at least 1 hour before testing. […] Mice are placed in a cylinder (diameter: 10 cm; height: 25 cm) filled with 6 cm of water (22-25° C.) for 6 min. The duration of immobility during the last 4 min. of the 6 min. period of the test was scored. A mouse is recorded as immobile when floating motionless or making only those movements necessary to keep its head above water.
In other experiments, mice with receptor deletions (mGlu2 knock-out mice) are studied; these mice are bred by heterozygote×heterozygote breeding and used as littermates for −/− and +/+ mouse comparisons (Taconic Farms).
Assay [6] has as its target T4, human mGlu2 receptor (Homo sapiens, UniProt Q14416).
T4 construct: expressed in transfected cells; host or cells: AV12 cells co-expressing rat EAAT1
Kind of assay: mGlu2 receptor cAMP antagonist assay. The format is cell-based. As to conditions: reversal of DCG IV (EC90) inhibition of forskolin-stimulated cAMP; relative IC50. On the procedure: (§4) Antagonist activity is assayed in recombinant AV12 cells stably expressing human mGlu2 or mGlu3 receptors and the rat glutamate transporter EAAT1 (Excitatory Amino Acid Transporter 1). The cell lines are maintained by culturing in DMEM with high glucose and pyridoxine hydrochloride supplemented with 5% dialyzed fetal bovine serum (FBS), 1 mM sodium pyruvate, 1 mM HEPES and 1 mM L-glutamine; geneticin and hygromycin B are used as selection antibiotics.
(§5) Reversal of the inhibition of forskolin-stimulated cAMP production by test compounds is measured using homogeneous time resolved fluorescence technology (HTRF; Cisbio cat #62AM4PEB). The medium is removed and the cells are incubated with 100 μl cAMP stimulation buffer (STIM) for 30 minutes at 37° C. […] Cells are incubated at 37° C. for 20 minutes. To measure the cAMP levels, cAMP-d2 conjugate and anti cAMP-cryptate conjugate in lysis buffer are incubated with the treated cells at room temperature for 1 hour (mGlu2) or 1.5 hour (mGlu3). […] The raw data are converted to cAMP amount (pmole/well) using a cAMP standard curve generated for each experiment. Relative IC50 values are calculated from the top-bottom range of the concentration response curve using a four-parameter logistic curve fitting program (ActivityBase v5.3.1.22).

The target of assay [7] is T5, human mGlu3 receptor (Homo sapiens, UniProt Q14832).
T5 construct: expressed in transfected cells; host or cells: AV12 cells co-expressing rat EAAT1
Briefly: mGlu3 receptor cAMP antagonist assay. The format is cell-based. The note with it: reversal of DCG IV (EC90) inhibition of forskolin-stimulated cAMP; relative IC50. On the procedure:
as §4, §5

The target of assay [8] is T6, human mGlu8 receptor (Homo sapiens, UniProt O00222).
T6 construct: expressed in transfected cells; host or cells: AV12 cells co-expressing rat EAAT1 and Galpha15
T6 sequence (O00222 34-908): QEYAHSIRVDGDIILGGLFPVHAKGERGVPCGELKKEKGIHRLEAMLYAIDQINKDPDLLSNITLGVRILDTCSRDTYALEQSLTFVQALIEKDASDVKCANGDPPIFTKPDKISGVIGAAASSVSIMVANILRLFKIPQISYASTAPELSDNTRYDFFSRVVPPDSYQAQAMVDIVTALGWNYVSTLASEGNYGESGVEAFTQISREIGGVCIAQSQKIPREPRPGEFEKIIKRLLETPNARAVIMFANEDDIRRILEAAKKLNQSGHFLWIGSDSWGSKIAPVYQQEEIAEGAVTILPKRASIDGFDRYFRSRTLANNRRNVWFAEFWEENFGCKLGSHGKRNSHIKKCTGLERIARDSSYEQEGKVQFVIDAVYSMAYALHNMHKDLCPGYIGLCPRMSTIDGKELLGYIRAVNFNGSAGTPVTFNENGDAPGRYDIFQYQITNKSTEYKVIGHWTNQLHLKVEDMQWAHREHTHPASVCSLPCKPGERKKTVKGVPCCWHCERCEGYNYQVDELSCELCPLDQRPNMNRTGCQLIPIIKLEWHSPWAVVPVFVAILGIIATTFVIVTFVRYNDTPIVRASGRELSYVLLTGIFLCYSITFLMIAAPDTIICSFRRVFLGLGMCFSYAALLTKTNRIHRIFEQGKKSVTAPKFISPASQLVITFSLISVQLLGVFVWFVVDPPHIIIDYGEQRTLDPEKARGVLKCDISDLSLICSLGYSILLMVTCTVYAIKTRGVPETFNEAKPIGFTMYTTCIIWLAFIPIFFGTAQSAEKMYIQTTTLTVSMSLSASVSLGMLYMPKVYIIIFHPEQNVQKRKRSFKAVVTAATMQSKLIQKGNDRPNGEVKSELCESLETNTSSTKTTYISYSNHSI
Kind of assay: FLIPR calcium antagonist assay for mGlu receptor selectivity, mGlu8. The format is cell-based. The text has this: The relative antagonist potencies of the compounds of the invention for the other human mGlu receptors can be assessed with either a cAMP assay or fluorometric calcium response assay (see for example Fell et al., JPET (in press)). Briefly, individual AV12 cell lines containing the rat EAAT1 glutamate transporter and stably expressing the human mGlu1, 2, 3, 4, 5, 6, & 8 receptors are used for these studies. The mGlu1 and 5 receptors are Gq-coupled, so they naturally signal through phospholipase C, producing a calcium flux response which can be used to measure receptor activation using a Fluorometric Imaging Plate Reader (FLIPR, Molecular Devices). The cell lines expressing the mGlu2, 3, 4, and 8 receptor are designed to express the Gα15 subunit so that these Gi-coupled receptors will generate a calcium flux response similar to the mGlu1 and 5 receptor expressing cell lines. The mGlu6 receptor is tested in a cAMP format using methods analogous to those developed for mGlu2 and mGlu3 above. These cell lines are maintained as previously described except that amounts of L-glutamine and selection agents (geneticin, hygromycin B, zeocin, and blasticidin) may vary depending on the cell line. Confluent cultures are passaged biweekly.
Intracellular calcium levels are monitored using FLIPR before and after the addition of test compounds and Fluo-3 AM (Invitrogen) or Calcium 4 (Molecular Devices) dye, depending on the cell line. Cells are plated 24 hours prior to assay in a variable concentration of glutamine and a variable density of cells per well, depending on the cell line. The medium is removed and the cells are incubated with 8 μM of dye (50 μl per well) for 90 or 120 minutes (depending on cell line) at 25° C. […] The results are analyzed using GraphPad Prism v4.03 to calculate the concentrations of glutamate needed to induce the EC90 (antagonist assay) and EC10 (potentiator assay) responses.
Compounds are tested at each mGlu receptor in a two-addition FLIPR assay using a 10-point concentration response profile starting at a final concentration of 25 μM for the agonist assay and 12.5 μM for the potentiator and antagonist assays. […] Agonist effects are quantified as percent stimulation induced by compound alone relative to the maximal glutamate response. Antagonist effects are quantified by calculating the percent inhibition of the EC90 glutamate response caused by the compound. Potentiation effects are quantified as percent increase in the presence of an EC10 response in glutamate relative to the ECmax response. All data are calculated as relative IC50 or EC50 values using a four-parameter logistic curve fitting program (ActivityBase v5.3.1.22).

The target of assay [9] is T7, human mGlu4 receptor (Homo sapiens, UniProt Q14833).
T7 construct: expressed in transfected cells; host or cells: AV12 cells co-expressing rat EAAT1 and Galpha15
T7 sequence (Q14833 33-912): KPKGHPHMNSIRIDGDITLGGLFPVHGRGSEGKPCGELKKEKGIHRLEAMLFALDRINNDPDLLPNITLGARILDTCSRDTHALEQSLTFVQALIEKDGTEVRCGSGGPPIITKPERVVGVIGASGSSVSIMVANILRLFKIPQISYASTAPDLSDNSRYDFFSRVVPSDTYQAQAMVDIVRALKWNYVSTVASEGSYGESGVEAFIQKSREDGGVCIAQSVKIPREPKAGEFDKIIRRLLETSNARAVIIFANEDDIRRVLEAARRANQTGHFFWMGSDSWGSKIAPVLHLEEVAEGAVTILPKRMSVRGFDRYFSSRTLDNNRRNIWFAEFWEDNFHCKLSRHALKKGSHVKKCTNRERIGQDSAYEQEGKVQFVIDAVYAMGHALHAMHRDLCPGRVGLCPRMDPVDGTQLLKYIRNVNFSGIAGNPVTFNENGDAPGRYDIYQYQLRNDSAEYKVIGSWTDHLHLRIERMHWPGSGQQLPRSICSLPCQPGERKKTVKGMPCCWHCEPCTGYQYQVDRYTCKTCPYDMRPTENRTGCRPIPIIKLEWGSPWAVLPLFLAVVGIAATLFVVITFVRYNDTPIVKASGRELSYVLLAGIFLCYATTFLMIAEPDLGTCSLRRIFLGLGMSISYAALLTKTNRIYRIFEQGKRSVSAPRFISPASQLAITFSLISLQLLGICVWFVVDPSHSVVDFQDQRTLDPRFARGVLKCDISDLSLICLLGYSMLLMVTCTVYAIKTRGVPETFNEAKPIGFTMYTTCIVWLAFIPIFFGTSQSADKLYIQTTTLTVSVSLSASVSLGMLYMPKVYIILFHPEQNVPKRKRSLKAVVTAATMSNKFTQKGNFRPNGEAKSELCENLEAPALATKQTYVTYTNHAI
Kind of assay: FLIPR calcium antagonist assay for mGlu receptor selectivity, mGlu4. In kind it is cell-based. As to conditions: inhibition of EC90 glutamate response, read-out: mGlu4 % inhib. @12.5 μM.
Text: as §1, §2, §3

T1 sequence (P41594 21-1212): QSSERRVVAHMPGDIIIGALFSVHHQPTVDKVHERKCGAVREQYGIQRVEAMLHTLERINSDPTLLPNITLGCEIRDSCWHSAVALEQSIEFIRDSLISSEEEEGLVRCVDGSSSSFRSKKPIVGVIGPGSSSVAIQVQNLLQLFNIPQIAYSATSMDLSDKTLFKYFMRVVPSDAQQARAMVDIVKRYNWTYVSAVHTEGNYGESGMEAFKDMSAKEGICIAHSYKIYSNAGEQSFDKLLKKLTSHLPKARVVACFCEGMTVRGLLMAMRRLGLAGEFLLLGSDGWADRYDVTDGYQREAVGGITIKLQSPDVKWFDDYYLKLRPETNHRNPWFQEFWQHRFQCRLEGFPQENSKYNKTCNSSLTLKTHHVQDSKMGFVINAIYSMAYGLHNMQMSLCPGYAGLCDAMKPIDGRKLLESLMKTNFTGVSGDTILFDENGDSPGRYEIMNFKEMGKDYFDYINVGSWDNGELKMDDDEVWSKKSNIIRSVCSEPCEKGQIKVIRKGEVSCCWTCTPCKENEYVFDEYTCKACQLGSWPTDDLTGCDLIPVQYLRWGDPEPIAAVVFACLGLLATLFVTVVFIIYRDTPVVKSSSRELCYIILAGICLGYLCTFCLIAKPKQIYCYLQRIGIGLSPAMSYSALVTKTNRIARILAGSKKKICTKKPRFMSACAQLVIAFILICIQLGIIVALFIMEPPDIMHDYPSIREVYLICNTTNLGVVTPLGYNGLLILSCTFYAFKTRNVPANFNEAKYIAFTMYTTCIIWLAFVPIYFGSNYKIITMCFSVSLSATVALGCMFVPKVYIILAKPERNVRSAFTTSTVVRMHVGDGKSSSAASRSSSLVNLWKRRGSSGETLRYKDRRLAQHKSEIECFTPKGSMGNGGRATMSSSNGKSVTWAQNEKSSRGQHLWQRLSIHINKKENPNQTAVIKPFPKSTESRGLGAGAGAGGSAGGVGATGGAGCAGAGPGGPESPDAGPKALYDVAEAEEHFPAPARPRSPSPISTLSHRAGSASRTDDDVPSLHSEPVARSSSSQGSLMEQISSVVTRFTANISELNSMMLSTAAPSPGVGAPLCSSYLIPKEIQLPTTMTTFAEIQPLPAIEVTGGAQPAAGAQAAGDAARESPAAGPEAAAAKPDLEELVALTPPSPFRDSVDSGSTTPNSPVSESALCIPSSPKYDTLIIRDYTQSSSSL
T2 sequence (Q13255 19-1194): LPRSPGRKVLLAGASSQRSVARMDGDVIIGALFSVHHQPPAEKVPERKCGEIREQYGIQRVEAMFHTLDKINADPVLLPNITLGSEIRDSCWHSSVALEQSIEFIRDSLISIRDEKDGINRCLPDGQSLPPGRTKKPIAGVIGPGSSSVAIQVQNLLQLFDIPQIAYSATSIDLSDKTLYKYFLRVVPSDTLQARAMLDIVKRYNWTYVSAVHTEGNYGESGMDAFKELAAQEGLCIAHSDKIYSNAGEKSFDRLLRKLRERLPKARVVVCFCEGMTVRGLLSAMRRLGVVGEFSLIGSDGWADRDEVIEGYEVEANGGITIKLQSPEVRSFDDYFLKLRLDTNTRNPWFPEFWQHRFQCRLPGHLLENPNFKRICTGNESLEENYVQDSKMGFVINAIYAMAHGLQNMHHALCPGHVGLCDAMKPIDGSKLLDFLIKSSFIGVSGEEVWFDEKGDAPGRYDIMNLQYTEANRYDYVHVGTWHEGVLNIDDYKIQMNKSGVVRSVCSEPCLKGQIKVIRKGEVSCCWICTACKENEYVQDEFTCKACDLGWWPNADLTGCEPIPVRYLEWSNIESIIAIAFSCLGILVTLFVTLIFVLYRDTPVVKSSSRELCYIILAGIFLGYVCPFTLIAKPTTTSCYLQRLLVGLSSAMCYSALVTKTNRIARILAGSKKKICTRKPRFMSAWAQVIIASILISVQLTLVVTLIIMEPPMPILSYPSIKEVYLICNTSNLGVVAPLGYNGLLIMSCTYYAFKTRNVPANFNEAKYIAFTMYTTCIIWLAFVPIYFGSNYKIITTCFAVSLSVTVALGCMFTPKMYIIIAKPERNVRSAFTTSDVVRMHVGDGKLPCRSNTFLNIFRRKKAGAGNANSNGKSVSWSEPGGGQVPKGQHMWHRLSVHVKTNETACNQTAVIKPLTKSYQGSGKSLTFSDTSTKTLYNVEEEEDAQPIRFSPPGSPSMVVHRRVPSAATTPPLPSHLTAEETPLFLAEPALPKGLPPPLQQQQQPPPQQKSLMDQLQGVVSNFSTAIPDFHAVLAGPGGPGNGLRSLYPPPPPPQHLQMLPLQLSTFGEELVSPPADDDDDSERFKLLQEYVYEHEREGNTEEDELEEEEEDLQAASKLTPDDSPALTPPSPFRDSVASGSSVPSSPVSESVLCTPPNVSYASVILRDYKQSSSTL
T4 sequence (Q14416 19-872): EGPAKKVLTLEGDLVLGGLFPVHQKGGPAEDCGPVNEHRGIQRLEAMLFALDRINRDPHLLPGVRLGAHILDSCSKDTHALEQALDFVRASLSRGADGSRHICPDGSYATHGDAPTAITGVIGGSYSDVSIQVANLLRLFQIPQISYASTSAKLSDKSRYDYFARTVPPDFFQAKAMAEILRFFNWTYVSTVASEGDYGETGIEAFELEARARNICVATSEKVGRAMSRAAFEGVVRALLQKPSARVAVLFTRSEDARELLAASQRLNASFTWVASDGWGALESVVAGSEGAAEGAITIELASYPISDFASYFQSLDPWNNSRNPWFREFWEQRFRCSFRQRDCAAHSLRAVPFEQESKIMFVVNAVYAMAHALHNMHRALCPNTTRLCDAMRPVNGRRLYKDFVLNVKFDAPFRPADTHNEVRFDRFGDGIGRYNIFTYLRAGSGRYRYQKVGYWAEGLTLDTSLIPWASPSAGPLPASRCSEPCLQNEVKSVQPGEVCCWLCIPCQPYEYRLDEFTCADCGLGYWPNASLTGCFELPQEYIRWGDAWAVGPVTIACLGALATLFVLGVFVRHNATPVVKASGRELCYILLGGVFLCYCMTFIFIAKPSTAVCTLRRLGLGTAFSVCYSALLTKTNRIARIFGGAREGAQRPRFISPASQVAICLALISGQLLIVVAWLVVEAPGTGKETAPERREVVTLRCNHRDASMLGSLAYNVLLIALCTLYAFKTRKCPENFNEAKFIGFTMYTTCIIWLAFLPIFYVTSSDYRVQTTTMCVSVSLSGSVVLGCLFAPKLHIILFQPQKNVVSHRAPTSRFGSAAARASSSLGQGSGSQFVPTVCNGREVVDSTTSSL

Consider `Cl.N[C@]1(C(=O)O)[C@@H]2[C@@H](C(=O)O)[C@@H]2[C@H](O)[C@H]1CSc1ccc(F)c(Cl)c1` [Example 2, (1S,2R,3S,4S,5R,6R)-2-Amino-3-{[(3-chloro-4-fluorophenyl)sulfanyl]methyl}-4-hydroxybicyclo[3.1.0]hexane-2,6-dicarboxylic acid hydrochloride], for which the inhibition at 12.5 µM is 21.4% in assay [1]; 7.9% in assay [3]; 68.7% in [8] (12.5 μM, inhibition of EC90 glutamate response, read-out: mGlu8 % inhib. @12.5 μM); 28% in assay [9]. For the same compound, in assay [2] (immobility, last 4 min of 6 min), the “ED60 (mg/kg)” value is recorded as 24.5 (i.p.) mg/kg. Also, the “Maximal Decrease (1 − compound/control) * 100%” value in assay [2] (immobilization time) stood at 33.5%. In addition, the IC50 (as a rule, the concentration that inhibits the measured activity by half) in assay [4] is 1390 nM; in [6] it was 12.7 ± 2.3 nM; in [7], 13.4 ± 3.4 nM; in [8] (FLIPR antagonist, in brackets under % inhib.), 7860 nM. Also, in assay [5], the “immobility time in mGlu2+/+ mice” value was “significantly decrease immobility time”.
